From US10758609B2, “Cross-reactive T-cell epitopes of HIV, SIV, and FIV for vaccines in humans and cats” (priority 2015, dated 2020) come the findings set out here.

The test deals with PBMC from HIV^+ subjects. The test is described as follows: IFNγ ELISpot of PBMC from HIV+ human subjects. The test is classed as cell-based. As to the method: The overlapping peptide pools of FIV and HIV-1 structural and enzyme proteins were used to stimulate the […] (PBMC) and the T cells from HIV^+ subjects as previously described for epitope mapping of HIV-1 and FIV p24 and reverse transcriptase (RT) (Sanou et al., 2013; Roff et al., 2015). The individual peptides in those peptide pools with positive responses to either interferon-γ (IFNγ) production and/or T-cell proliferation were determined with IFNγ ELISpot analysis and CFSE-based CD3^+CD4^+ and CD3^+CD8^+ T-cell proliferation analyses followed by the FACS-based intracellular staining (ICS) for cytolysin (perforin) and cytotoxin (granzyme A [GrzA] and GrzB) (Sanou et al., 2013; Roff et al., 2015). Besides viral p24 and RT proteins, the identical approach was used to identify anti-HIV/FIV T-cell epitopes on viral matrix (MA), nucleocapsid (NC), protease (PR), RNAase, integrase (IN), surface envelope (SU Env), and transmembrane envelope (TM Env) (FIG. 12).
Since our goal is to develop HIV vaccine for human use, the HIV peptides (Table 10) counterpart of the cross-reactive FIV peptides shown in Table 9 were tested with PBMC and T cells from HIV^+ subjects. The immune functions analyzed were human IFNγ production by ELISpot, cytolysin/cytotoxin production by ICS, and CFSE-based proliferation of CD3^+CD4^+ and CD3^+CD8^+ T cells from HIV^+ subjects (Table 10, the first set of results). In addition, the Los Alamos National Laboratories (LANL) database was used to identify the HLA allele(s) of the HIV epitope sequence with CTL activity that can exist within the sequence of the conserved counterpart HIV peptide (Table 9, LANL CTL). The bold HLA class-I supertypes and the bold 2-digit alleles are those on the “Optimal CD8^+ CTL Epitopes” list and those without bold are alleles for potential CTL epitope. […] The HLA class II such as HLA-DRB1 has yet to be fully classified into supertypes, and therefore the 4-digit resolution nomenclatures for the HLA-DRB1 alleles are shown.
In addition, these peptides were also analyzed for IFNγ production, CD4^+ and CD8^+ T-cell proliferation, and cytolysin (perforin) and cytotoxin (granzyme A (GrzA) and GrzB)) mRNA production of PBMC or T cells from 8-30 HIV^+ human subjects. The frequency of responders is based on the individual responses of the vaccinated cats or HIV^+ human subjects after subtraction of the average of the responses of PBMC or T cells from 6-8 non-vaccinated cats or 8-20 HIV-negative human subjects.
The threshold for positive IFNγ and IL2 ELISpot responses is ≥50 spot-forming units (SFU) per 10^6 PBMC. The threshold for CFSE-based CD4^+ and CD8^+ T-cell proliferation is ≥2% CD4^+ T-cell CFSE^low or CD8^+ T-cell CFSE^low. The threshold of FACS-based intracellular cytokine staining (ICS) is ≥0.2%. […] The nine FIV peptides in black were used in the current MAP vaccine trial, whereas the 13 peptides in blue were not used. […] The MAPs and their corresponding peptide(s) were also tested for their ability to enhance or suppress in vitro FIV infection of feline PBMC (E/S of peptides and E/S of MAP).
The counterpart HIV-1 peptides of the FIV peptides were also tested for immunogenicity using PBMC and T cells from HIV^+ human subjects. […] The HRT7-1 and HRT7-2 were also tested with cells from HIV^+ subjects on ART. The threshold for positive IFNγ ELISpot response is ≥75 spot-forming units (SFU) per 10^6 PBMC. The threshold for CFSE-based CD4^+ (CD4^+ T) and CD8^+ (CD8^+ T) T-cell proliferation is ≥2% CD4^+ T-cell CFSE^low or CD8^+ T-cell CFSE^low. The threshold of intracellular cytokine staining (ICS) of FACS-based cytolysin (perforin) and cytotoxins (granzymes A and B) in CD4^+ T cells (CyCD4) and CD8^+ T cells (CyCD8) is ≥0.2%.

AGLRQSLEQYQVVKQ [FSU4]: the “IFNγ, frequency of responders” value is reported as “— (0%-1.4% (—))” (FIV epitope peptide) and “— (0%-1.4%(—))” (FIV peptides).

As for KFLYTAFAMQELR [FTM4-3], the “IFNγ, frequency of responders” value is, setting by setting: (FIV epitope peptide) “— (0%-1.4% (—))”; (FIV peptides) “— (0%-1.4%(—))”.

As for KKKSGKWRMLIDFRV [FRT3-3], the “IFNγ, frequency of responders” value is “++++ (>54% (++++))” (FIV epitope peptide) and “++++ (>54% (++++))” (FIV peptides).

As for LLLILCLPTLVDCIRN [FTM8(20)], the “IFNγ, frequency of responders” value is, setting by setting: (FIV epitope peptide) “— (0%-1.4% (—))”; (FIV peptides) “— (0%-1.4%(—))”.

On to PTDMATLIMAAPGCA [Fp4-3], for which the “IFNγ, frequency of responders” value was “— (0%-1.4% (—))” (FIV epitope peptide) and “— (0%-1.4%(—))” (FIV peptides).

As for WRMLIDFRVLNKL [FRT3-4], the “IFNγ, frequency of responders” value is, setting by setting: (FIV epitope peptide) “— (0%-1.4% (—))”; (FIV peptides) “— (0%-1.4%(—))”.
